In US20260053834A1, “COVALENT MODIFIERS OF AKT1 AND USES THEREOF” (Terremoto Biosciences, Inc., priority 2023, published 2026):

How the values were obtained:
[1] = system: LAPC4 prostate cancer cells, which express the AKT1 E17K allele; test: Antiproliferative effects in LAPC4 cells (CellTiter Glo, 72 h); type: cell-based; conditions: Homo sapiens, LAPC4, 72 h, read-out: LAPC4 proliferation IC50: GeoMean IC50
How it was run: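 IC50 values come from Hill-equation fitting of luminescence (cellular ATP) after 72 h compound exposure. Treated wells held 1,000 cells each, with compound delivered as DMSO dilutions. Culture medium was IMDM plus 12% FBS.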

AKT1 E17K = biological target: T1, AKT1 E17K (Homo sapiens, UniProt P31749, E17K); test: Live cell target engagement by NanoBRET competitive probe displacement, AKT1 E17K; type: binding; conditions: transfected HEK293 cells, 2 h at 37° C., read-out: AKT1 E17K IC50: GeoMean IC50
T1 construct: expressed in transfected cells; host or cells: HEK293
T1 sequence (P31749 whole entry E17K): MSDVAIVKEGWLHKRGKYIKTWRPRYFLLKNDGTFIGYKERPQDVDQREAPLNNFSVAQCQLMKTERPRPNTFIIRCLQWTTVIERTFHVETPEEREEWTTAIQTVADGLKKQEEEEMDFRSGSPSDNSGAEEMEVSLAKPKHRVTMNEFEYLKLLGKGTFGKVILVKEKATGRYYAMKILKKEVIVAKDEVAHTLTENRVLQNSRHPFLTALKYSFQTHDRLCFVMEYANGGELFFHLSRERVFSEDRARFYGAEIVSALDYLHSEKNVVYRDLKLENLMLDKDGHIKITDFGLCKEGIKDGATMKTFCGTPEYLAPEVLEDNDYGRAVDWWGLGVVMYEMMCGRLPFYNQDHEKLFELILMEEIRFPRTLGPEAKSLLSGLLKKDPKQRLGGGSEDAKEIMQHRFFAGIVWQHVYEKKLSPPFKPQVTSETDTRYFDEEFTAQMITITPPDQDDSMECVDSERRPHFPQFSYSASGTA

AKT1 WT = biological target: T2, AKT1 WT (Homo sapiens, UniProt P31749); test: Live cell target engagement by NanoBRET competitive probe displacement, AKT1 WT; type: binding; conditions: transfected HEK293 cells, 2 h at 37° C., read-out: AKT1 WT IC50: GeoMean IC50
T2 construct: expressed in transfected cells; host or cells: HEK293
T2 sequence (P31749 whole entry): as the sequence (P31749 whole entry E17K) above, with K17E counted along it

AKT2 = biological target: T3, AKT2 (Homo sapiens, UniProt P31751); test: Live cell target engagement by NanoBRET competitive probe displacement, AKT2; type: binding; conditions: transfected HEK293 cells, 2 h at 37° C., read-out: AKT2 IC50: GeoMean IC50
T3 construct: expressed in transfected cells; host or cells: HEK293
T3 sequence (P31751 whole entry): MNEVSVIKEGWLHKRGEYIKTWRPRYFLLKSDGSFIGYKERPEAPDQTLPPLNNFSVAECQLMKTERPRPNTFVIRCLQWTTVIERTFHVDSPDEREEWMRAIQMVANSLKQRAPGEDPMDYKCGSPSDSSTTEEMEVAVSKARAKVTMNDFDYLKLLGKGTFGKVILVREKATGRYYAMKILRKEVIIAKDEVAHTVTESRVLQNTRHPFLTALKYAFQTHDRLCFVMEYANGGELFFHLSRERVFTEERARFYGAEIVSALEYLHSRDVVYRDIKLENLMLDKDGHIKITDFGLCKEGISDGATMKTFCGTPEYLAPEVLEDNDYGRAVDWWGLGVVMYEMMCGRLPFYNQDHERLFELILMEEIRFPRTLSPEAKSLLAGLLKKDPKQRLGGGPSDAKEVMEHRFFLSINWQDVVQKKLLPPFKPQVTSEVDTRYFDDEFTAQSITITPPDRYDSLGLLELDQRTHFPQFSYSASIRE

Row | Compound | IC50 [1] [nM] | IC50 (AKT1 E17K) [nM] | IC50 (AKT1 WT) [nM] | IC50 (AKT2) [nM]
1 | Nc1ncccc1-c1nc2ccc(-c3cc4n(n3)CCOC4)nc2n1-c1ccc2c(c1)CC[C@@H]2NC(=O)c1cc(C=O)c(O)cc1F [Example 246, N-[(1S)-5-[2-(2-aminopyridin-3-yl)-5-{4H,6H,7H-pyrazolo[3,2-c][1,4]oxazin-2-yl}imidazo[4,5-b]pyridin-3-yl]-2,3-dihydro-1H-inden-1-yl]-2-fluoro-5-formyl-4-hydroxybenzamide] | 10 to 100 | 10 to 100 | 10 to 100 | 100 to 2000
2 | Nc1ncccc1-c1nc2ccc(-c3cc4n(n3)CCC4)nc2n1-c1ccc2c(c1)CC[C@@H]2NC(=O)c1cc(C=O)c(O)cc1F [Example 247, N-[(1S)-5-[2-(2-aminopyridin-3-yl)-5-{4H,5H,6H-pyrrolo[1,2-b]pyrazol-2-yl}imidazo[4,5-b]pyridin-3-yl]-2,3-dihydro-1H-inden-1-yl]-2-fluoro-5-formyl-4-hydroxybenzamide] | 10 to 100 | 10 to 100 | 10 to 100 | 100 to 2000
3 | Nc1ncccc1-c1nc2cc(F)c(-n3cccn3)nc2n1-c1ccc2c(c1)CC[C@@H]2NC(=O)c1ccc(O)c(C=O)c1 [Example 248, (S)—N-(5-(2-(2-aminopyridin-3-yl)-6-fluoro-5-(1H-pyrazol-1-yl)-3H-imidazo[4,5-b]pyridin-3-yl)-2,3-dihydro-1H-inden-1-yl)-3-formyl-4-hydroxybenzamide] | 100 to 2000 | 10 to 100 | 10 to 100 | 100 to 2000
4 | N#Cc1cc(O)c(C=O)cc1C(=O)N[C@H]1CCc2cc(-n3c(-c4cccnc4N)nc4ccc(-n5cccn5)nc43)ccc21 [Example 250, (S)—N-(5-(2-(2-aminopyridin-3-yl)-5-(1H-pyrazol-1-yl)-3H-imidazo[4,5-b]pyridin-3-yl)-2,3-dihydro-1H-inden-1-yl)-2-cyano-5-formyl-4-hydroxybenzamide] | ≥ 2000 | ≥ 2000 | ≥ 2000 | ≥ 2000
5 | Nc1ncccc1-c1nc2ccc(-n3cccn3)nc2n1-c1ccc2c(c1)C1CC1C2NC(=O)c1ccc(O)c(C=O)c1 (stereo not shown) [Example 252, N-(3-(2-(2-aminopyridin-3-yl)-5-(1H-pyrazol-1-yl)-3H-imidazo[4,5-b]pyridin-3-yl)-1,1a,6,6a-tetrahydrocyclopropa[a]inden-6-yl)-3-formyl-4-hydroxybenzamide] | 100 to 2000 | 100 to 2000 | 100 to 2000 | ≥ 2000
6 | Nc1ncccc1-c1nc2ccc(-n3cccn3)nc2n1-c1ccc2c(c1)CC[C@@H]2NC(=O)c1cc(C=O)c(O)c2ncoc12 [Example 253, N-[(1S)-5-[2-(2-aminopyridin-3-yl)-5-(pyrazol-1-yl)imidazo[4,5-b]pyridin-3-yl]-2,3-dihydro-1H-inden-1-yl]-5-formyl-4-hydroxy-1,3-benzoxazole-7-carboxamide] | 100 to 2000 | 100 to 2000 | 100 to 2000 | 100 to 2000
7 | Nc1ncccc1-c1nc2ccc(-n3cccn3)nc2n1-c1ccc2c(c1)CC[C@@H]2NC(=O)c1ccc(O)c(C=O)c1F [Example 255, (S)—N-(5-(2-(2-aminopyridin-3-yl)-5-(1H-pyrazol-1-yl)-3H-imidazo[4,5-b]pyridin-3-yl)-2,3-dihydro-1H-inden-1-yl)-2-fluoro-3-formyl-4-hydroxybenzamide] | 100 to 2000 | 10 to 100 | 100 to 2000 | 100 to 2000
